Columns and labels:
[1] = tested on: HeLa cell line; assay: Immunoblotting of histone from tripartin-treated HeLa cell line: other histone marks (H3, H3K79me2, H3ace); format: cell-based, human; details: 10 μM, 37° C., 24 hours, vs DMSO control
Procedure: (§1) HeLa cell line, which is a uterine cervical cancer cell line, was treated with tripartin and then histone was extracted from the tripartin-treated HeLa cell. A histone methylation antibody which may verify activity of the KDM was analyzed by immunoblotting to measure the KDM inhibiting effect.
(§2) 0.1% (w/v) DMSO (control group), or 0.1% (w/v) DMSO and 10 μM tripartin (experimental group) was added to the HeLa cell line, which was then incubated at 37° C. for 24 hours. Subsequently, proteins were extracted from the HeLa cell line, and the extracted proteins underwent electrophoresis with 15% SDS-polyacrylamide. Anti-histone H3 antibody (MILLIPORE), anti-H3K9me3 antibody (MILLIPORE), anti-H3K9me2 antibody (MILLIPORE), anti-H3K3me1 antibody (MILLIPORE), anti-H3K27me3 antibody (MILLIPORE), anti-H3K4me3 antibody (MILLIPORE), anti-H3K36me3 antibody (MILLIPORE), anti-H3K79me2 antibody (MILLIPORE), and anti-H3ace antibody (MILLIPORE) were used to perform immunoblotting. […] Herein, H”, “K”, “me”, and “ace” refer to histone, lysine (K), methylation, and acetylation, respectively. The number next to “H” refers to a histone number, the number next to “K” refers to the histone amino acid number, and the number next to “me” refers to the number of methylation. For example, “H3K9me3” refers to histone H3 with a tri-methylated lysine in the ninth position.
(§3) KDM3, KDM4, KDM6, KDM5, and KDM2/7 demethylate H3K9me2/1, H3K9me3, H3K27, H3K4, and H3K36, respectively.

[2] = Analysis of physicochemical properties of tripartin
[3] = tested on: KDM4; assay: Immunoblotting of histone from tripartin-treated HeLa cell line: KDM4 inhibitory activity (H3K9me3); format: cell-based, human; details: 10 μM, 24 hours
Procedure: as §1
(§4) 0.1% (w/v) DMSO (control group), or 0.1% (w/v) DMSO and 10 μM tripartin (experimental group) was added to the HeLa cell line, which was then incubated at 37° C. for 24 hours. Subsequently, proteins were extracted from the HeLa cell line, and the extracted proteins underwent electrophoresis with 15% SDS-polyacrylamide. Anti-histone H3 antibody (MILLIPORE), anti-H3K9me3 antibody (MILLIPORE), anti-H3K9me2 antibody (MILLIPORE), anti-H3K3me1 antibody (MILLIPORE), anti-H3K27me3 antibody (MILLIPORE), anti-H3K4me3 antibody (MILLIPORE), anti-H3K36me3 antibody (MILLIPORE), anti-H3K79me2 antibody (MILLIPORE), and anti-H3ace antibody (MILLIPORE) were used to perform immunoblotting. […] Herein, H”, “K”, “me”, and “ace” refer to histone, lysine (K), methylation, and acetylation, respectively. The number next to “H” refers to a histone number, the number next to “K” refers to the histone amino acid number, and the number next to “me” refers to the number of methylation. For example, “H3K9me3” refers to histone H3 with a tri-methylated lysine in the ninth position. […]

[4] = tested on: KDM2/7; assay: Immunoblotting of histone from tripartin-treated HeLa cell line: KDM2/7 inhibitory activity (H3K36me3); format: cell-based, human; details: 10 μM, 24 hours, vs DMSO control
Procedure: as §1, §4

[5] = tested on: KDM3; assay: Immunoblotting of histone from tripartin-treated HeLa cell line: KDM3 inhibitory activity (H3K9me2/1); format: cell-based, human; details: 10 μM, 24 hours, vs DMSO control
Procedure: as §1, §2, §3

[6] = tested on: KDM6; assay: Immunoblotting of histone from tripartin-treated HeLa cell line: KDM6 inhibitory activity (H3K27me3); format: cell-based, human; details: 10 μM, 24 hours, vs DMSO control
Procedure: as §1, §4

[7] = tested on: KDM5; assay: Immunoblotting of histone from tripartin-treated HeLa cell line: KDM5 inhibitory activity (H3K4me3); format: cell-based, human; details: 10 μM, 24 hours, vs DMSO control
Procedure: as §1, §4

O=C1C[C@@](O)(C(Cl)Cl)c2c(O)cc(O)cc21 [tripartin]
H3K79me2 level (immunoblotting) [1]: not increased | H3ace level (immunoblotting) [1]: not increased | H3 level (immunoblotting) [1]: not increased | Solubility ([2]; intermediate organic solvent such as methanol and acetone): well dissolved | Stability of the solid ([2]; room temperature): stable at room temperature | H3K9me3 level (immunoblotting) ([3]; 37° C., vs DMSO control): increased significantly | KDM4 inhibitory effect ([3]; in comparison to the DMSO control group): inhibitory effect | H3K36me3 level (immunoblotting) ([4]; 37° C.): not increased | KDM2/7 inhibitory effect [4]: No inhibitory effect | H3K9me1 level (immunoblotting) ([5]; 37° C.): not increased | H3K9me2 level (immunoblotting) ([5]; 37° C.): not increased | KDM3 inhibitory effect [5]: No inhibitory effect | H3K27me3 level (immunoblotting) ([6]; 37° C.): not increased | KDM6 inhibitory effect [6]: No inhibitory effect | H3K4me3 level (immunoblotting) ([7]; 37° C.): not increased | KDM5 inhibitory effect [7]: No inhibitory effect

From patent US9650325B2, “Compound, preparing method thereof, and use thereof as inhibitors of histone demethylase” (SNU R&DB FOUNDATION, priority 2013, dated 2017)
